Test results published in ChEMBL document CHEMBL3785017, “Induction of apoptosis and differentiation by atractylenolide-1 isolated from Atractylodes macrocephala in human leukemia cells” (Bioorg Med Chem Lett, 2016).
≈ marks a conversion by molar mass, not a printed value. Calls of active or inactive are those of the source. The rule behind the calls is not given here.

Key:
[1] = Induction of cell differentiation in human U937 cells assessed as upregulation of CD14 at 10 uM after 72 hrs by flow cytometry; type: functional, cell-based; settings: U-937
K562 [2] = assay: Induction of cell differentiation in human K562 cells assessed as upregulation of CD14 at 10 uM after 72 hrs by flow cytometry; type: functional, cell-based
U-937 [3] = assay: Induction of phagocytosis in human U937 cells at 10 uM measured using fluorescent latex beads after 2 hrs by flow cytometry; type: functional, cell-based
K562 [4] = assay: Induction of phagocytosis in human K562 cells at 10 uM incubated for 4 to 6 days followed by fluorescent latex beads addition measured after 2 hrs by flow cytometry; type: functional, cell-based
[5] = Cell cycle arrest in human Jurkat T cells assessed as accumulation at sub G1 phase at 50 ug/ml after 24 hrs by propidium iodide staining based flow cytometry (reference value: 0.9%); type: functional
[6] = Cell cycle arrest in human U937 cells assessed as accumulation at sub G1 phase at 50 to 100 ug/ml after 24 hrs by propidium iodide staining based flow cytometry; type: functional; settings: U-937
K562 [7] = assay: Cell cycle arrest in human K562 cells assessed as accumulation at sub G1 phase at 50 to 100 ug/ml after 48 hrs by propidium iodide staining based flow cytometry; type: functional
U-937 [8] = assay: Induction of apoptosis in human U937 cells assessed as fragmented chromosomal DNA at 6.25 to 50 ug/ml after 12 to 48 hrs by agarose gel electrophoresis; type: functional, cell-based
Jurkat [9] = assay: Induction of apoptosis in human Jurkat T cells assessed as fragmented chromosomal DNA at 6.25 to 50 ug/ml after 12 to 48 hrs by agarose gel electrophoresis; type: functional, cell-based
U-937 [10] = assay: Induction of apoptosis in human U937 cells assessed as procaspase 9 degradation at 6.25 to 50 ug/ml after 24 hrs by Western blot analysis; type: functional, cell-based
U-937 [11] = assay: Induction of apoptosis in human U937 cells assessed as procaspase 3 degradation at 6.25 to 50 ug/ml after 24 hrs by Western blot analysis; type: functional, cell-based
U-937 [12] = assay: Induction of apoptosis in human U937 cells assessed as PARP degradation at 50 ug/ml after 24 hrs by Western blot analysis; type: functional, cell-based
Jurkat [13] = assay: Induction of apoptosis in human Jurkat T cells assessed as procaspase 9 degradation at 6.25 to 50 ug/ml after 24 hrs by Western blot analysis; type: functional, cell-based
Jurkat [14] = assay: Induction of apoptosis in human Jurkat T cells assessed as procaspase 3 degradation at 6.25 to 50 ug/ml after 24 hrs by Western blot analysis; type: functional, cell-based
Jurkat [15] = assay: Induction of apoptosis in human Jurkat T cells assessed as PARP degradation at 50 ug/ml after 24 hrs by Western blot analysis; type: functional, cell-based
[16] = Induction of cell differentiation in human U937 cells assessed as upregulation of CD68 at 6.25 ug/ml after 72 hrs by flow cytometry (reference value: 5.9%); type: functional, cell-based; settings: U-937
[17] = Induction of cell differentiation in human U937 cells assessed as upregulation of CD68 at 12.5 ug/ml after 72 hrs by flow cytometry (reference value: 5.9%); type: functional, cell-based; settings: U-937
[18] = Induction of cell differentiation in human U937 cells assessed as upregulation of CD14 at 6.25 ug/ml after 72 hrs by flow cytometry (reference value: 4.3%); type: functional, cell-based; settings: U-937
K562 [19] = assay: Induction of cell differentiation in human K562 cells assessed as upregulation of CD14 at 12.5 ug/ml after 72 hrs by flow cytometry (reference value: 6.4%); type: functional
K562 [20] = assay: Induction of cell differentiation in human K562 cells assessed as upregulation of CD14 at 50 ug/ml after 72 hrs by flow cytometry (reference value: 6.4%); type: functional
U-937 [21] = assay: Induction of phagocytosis in human U937 cells at 6.25 to 12.5 ug/ml measured using fluorescent latex beads after 2 hrs by flow cytometry relative to control; type: functional
[22] = Cytotoxicity against human Jurkat T cells assessed as growth inhibition after 12 hrs by MTT assay; type: functional, cell-based
[23] = Cytotoxicity against human Jurkat T cells assessed as growth inhibition after 24 hrs by MTT assay; type: functional, cell-based
[24] = Cytotoxicity against human Jurkat T cells assessed as growth inhibition after 48 hrs by MTT assay; type: functional, cell-based
[25] = Cytotoxicity against human U937 cells assessed as growth inhibition after 24 hrs by MTT assay; type: functional, cell-based; settings: U-937, 24 h
[26] = Cytotoxicity against human U937 cells assessed as growth inhibition after 48 hrs by MTT assay; type: functional, cell-based; settings: U-937, 48 h
K562 [27] = assay: Cytotoxicity against human K562 CML cells assessed as growth inhibition treated with high doses of compound after 48 to 72 hrs by MTT assay; type: functional, cell-based
K562 [28] = assay: Induction of cell death in human K562 cells at 12.5 to 50 ug/ml after 48 hrs; type: functional, cell-based
U-937 [29] = assay: Induction of cell death in human U937 at 12.5 to 25 ug/ml cells after 24 hrs; type: functional, cell-based
Jurkat [30] = assay: Induction of cell death in human Jurkat T cells; type: functional, cell-based
[31] = Cell cycle arrest in human Jurkat T cells assessed as accumulation at sub G1 phase at 12.5 ug/ml after 24 hrs by propidium iodide staining based flow cytometry (reference value: 0.9%); type: functional
[32] = Cell cycle arrest in human Jurkat T cells assessed as accumulation at sub G1 phase at 25 ug/ml after 24 hrs by propidium iodide staining based flow cytometry (reference value: 0.9%); type: functional
U-937 [33] = assay: Induction of phagocytosis in human U937 cells at 0.1 uM measured using fluorescent latex beads after 2 hrs by flow cytometry; type: functional, cell-based
K562 [34] = assay: Induction of phagocytosis in human K562 cells at 0.1 uM preincubated for 4 to 6 days followed by addition of fluorescent latex beads measured after 2 hrs by flow cytometry; type: functional, cell-based
[35] = Induction of cell differentiation in human U937 cells assessed as upregulation of CD68 at 0.1 uM after 72 hrs by flow cytometry (reference value: 5.9%); type: functional, cell-based; settings: U-937
[36] = Induction of cell differentiation in human U937 cells assessed as upregulation of CD14 at 0.1 uM after 72 hrs by flow cytometry (reference value: 4.3%); type: functional, cell-based; settings: U-937
K562 [37] = assay: Induction of cell differentiation in human K562 cells assessed as upregulation of CD14 at 0.1 uM after 72 hrs by flow cytometry (reference value: 6.4%); type: functional

With CC[C@@]1(O)C(=O)OCc2c1cc1n(c2=O)Cc2cc3ccccc3nc2-1 the Activity [1] was “inactive”, the Activity (K562 [2]) was “inactive” and the Activity (U-937 [3]) was “inactive”. The Activity (K562 [4]) was “inactive”.
With C=C1CCC[C@]2(C)C=C3OC(=O)C(C)=C3C[C@@H]12 [ATRACTYLENOLIDE I] the Activity [5] was 32.3%, the Activity [6] was > 50% and the Activity (K562 [7]) was >50%. For the same molecule, the Activity (U-937 [8]) was “Active”, the Activity (Jurkat [9]) was “Active” and the Activity (U-937 [10]) was “Active”. The Activity (U-937 [11]) was “Active”, the Activity (U-937 [12]) was “Active” and the Activity (Jurkat [13]) was “Active”. For the same molecule, the Activity (Jurkat [14]) was “Active”, the Activity (Jurkat [15]) was “Active” and the Activity [16] was 53.3%. For the same molecule, the Activity [17] was 84.3%, the Activity [18] was 25.6% and the Activity (K562 [19]) was 13.4%. For the same molecule, the Activity (K562 [20]) was 18.1%, the Activity (U-937 [21]) was 50% and the IC50 [22] was 44.7 µg/mL (≈ 194 µM). The IC50 [23] was 37.6 µg/mL (≈ 163 µM), the IC50 [24] was 24.4 µg/mL (≈ 106 µM) and the IC50 [25] was 14.9 µg/mL (≈ 64.7 µM). The IC50 [26] was 4.23 µg/mL (≈ 18.4 µM), the “growth inhibition (GI)” value (K562 [27]) was “Active” and the Activity (K562 [28]) was “Active”. For the same molecule, the Activity (U-937 [29]) was “Active”, the Activity (Jurkat [30]) was “Active” and the Activity [31] was 7.5%. For the same molecule, the Activity [32] was 20.3%.
With CCCCCCCCCCCCCC(=O)O[C@@H]1[C@@H](C)[C@@]2(O)[C@@H](C=C(CO)C[C@]3(O)C(=O)C(C)=C[C@@H]23)[C@@H]2C(C)(C)[C@]12OC(C)=O [PHORBOL MYRISTATE ACETATE] the Activity (U-937 [33]) was “Active”, the Activity (K562 [34]) was “Active” and the Activity [35] was 39.2%. For the same molecule, the Activity [36] was 25% and the Activity (K562 [37]) was 38.1%.
